# From patent US20100227767A1, “STOCHASTIC CONFINEMENT TO DETECT, MANIPULATE, AND UTILIZE MOLECULES AND ORGANISMS” (priority 2007, published 2010)
# Columns and labels:
# MSSA = test: plug-based drug screening in human blood plasma/LB, MSSA; details: MSSA in 1:1 human blood plasma/LB; breakpoint concentration; 7.5 h at 37° C
# [1] = tested on: Methicillin Resistant S. aureus (MRSA, ATCC#43300); test: plug-based microfluidic antibiotic susceptibility screen with alamarBlue viability indicator; details: FIG. 2c; breakpoint concentration; negative control VCM, positive control blank
# [2] = tested on: Methicillin Resistant S. aureus (MRSA); details: 24 mg/L; cited from earlier work
# [3] = tested on: Methicillin Sensitive S. aureus (MSSA); details: 24 mg/L; cited from earlier work
# [4] = tested on: Staphylococcus aureus ATCC#25923 (MSSA); test: antibiotic testing on Mueller Hinton agar plates, MSSA; details: 30° C; even after 40 h
# Experimental: Plates were made from Mueller Hinton Agar (Fluka, Switzerland). After autoclaving, the agar was cooled and antibiotics were added and 20 mL plates were poured. For CFX and OXA testing, 50 μL of MRSA and MSSA bacterial culture at 4×10^3 CFU/mL was spread onto separate TSA plates. The plates were incubated at 30° C. After 16.5 h and 40 h the plates were examined for colonies. […] For AMP, ERT, LVF, and VCM, 5 μL of culture at 2×10^4 CFU/mL were spread onto plates, and the plates were incubated at 37° C. for 12 h. After 12 h, growth of colonies on the plates was considered resistance to the antibiotic and no colonies on the plates were considered sensitivity to the antibiotic. For all tests, control plates with no antibiotic were inoculated to ensure that each plate tested received many CFU during inoculation.
# [5] = tested on: Methicillin Resistant S. aureus (MRSA, ATCC#43300); test: macro-scale experiments, MRSA
smiles,measurement,setting,value
"CC1(C)S[C@@H]2[C@H](NC(=O)[C@H](N)c3ccccc3)C(=O)N2[C@H]1C(=O)O [AMP, ampicillin]",increase in fluorescence intensity of plugs with antibiotic,MSSA,no increase in fluorescence intensity
same,plug fluorescence compared to positive and negative controls (unpaired t-test),[1],statistically different than the negative control
"CO[C@@]1(NC(=O)Cc2cccs2)C(=O)N2C(C(=O)O)=C(COC(N)=O)CS[C@@H]21 [CFX, cefoxitin]",known inhibition of the strain by CFX,[2],inhibited
same,known inhibition of the strain by CFX,[3],inhibited
same,appearance of MSSA colonies on antibiotic plates,[4],did not appear
same,plug fluorescence compared to positive and negative controls (unpaired t-test),[1],statistically different than the negative control
"CC[C@H]1OC(=O)[C@H](C)[C@@H](O[C@H]2C[C@@](C)(OC)[C@@H](O)[C@H](C)O2)[C@H](C)[C@@H](O[C@@H]2O[C@H](C)C[C@H](N(C)C)[C@H]2O)[C@](C)(O)C[C@@H](C)C(=O)[C@H](C)[C@@H](O)[C@]1(C)O [ERT, erythromycin]",plug fluorescence compared to positive and negative controls (unpaired t-test),[1],statistically different than the negative control
"Cc1onc(-c2ccccc2)c1C(=O)N[C@@H]1C(=O)N2[C@@H]1SC(C)(C)[C@@H]2C(=O)O [OXA, oxacillin]",appearance of MSSA colonies on antibiotic plates,[4],did not appear
same,plug fluorescence compared to positive and negative controls (unpaired t-test),[1],statistically different than the negative control
"CN[C@H](CC(C)C)C(=O)N[C@H]1C(=O)N[C@@H](CC(N)=O)C(=O)N[C@H]2C(=O)N[C@H]3C(=O)N[C@H](C(=O)N[C@H](C(=O)O)c4cc(O)cc(O)c4-c4cc3ccc4O)[C@H](O)c3ccc(c(Cl)c3)Oc3cc2cc(c3O[C@@H]2O[C@H](CO)[C@@H](O)[C@H](O)[C@H]2O[C@H]2C[C@](C)(N)[C@H](O)[C@H](C)O2)Oc2ccc(cc2Cl)[C@H]1O [VCM, vancomycin]",inhibition of the S. aureus strain in macro-scale experiments,[5],inhibited
same,plug fluorescence compared to positive and negative controls (unpaired t-test),[1],statistically different than positive controls
